Data set [1] addresses T1, somatostatin receptors sub-type 2 (Homo sapiens, UniProt P30874).
T1 construct: expressed in transfected cells; membrane preparations
The experiment in a line: Affinity for somatostatin receptors: inhibition of [125I-Tyr11]SRIF-14 binding to membranes of transfected CHO-K1 cells. The following applies: competitive inhibition of [125I-Tyr11]SRIF-14 binding, 37° C. The method, then:
(§1) The affinity of the compounds of the invention for the somatostatin receptors is determined by measurement of the inhibition of the bond of [125I-Tyr11]SRIF-14 to membrane preparations of transfected CHO-K1 cells.
(§2) The CHO-K1 cells expressing in a stable fashion each of the sub-types of somatostatin receptors are collected with 0.5 mM of EDTA and centrifuged at 500 g for 5 minutes at 4° C. The pellet is re-suspended in phosphate buffer (PBS) and centrifuged at 500 g for 5 minutes at 4° C. The pellet is re-suspended in Tris 50 mM buffer at pH 7.4 and centrifuged at 500 g for 5 minutes at 4° C. The cells are lyzed by sonication and centrifuged at 39,000 g for 10 minutes. The pellet is re-suspended in Tris 50 mM buffer at pH 7.4, an aliquot is removed for assaying the proteins and the remainder is centrifuged at 50,000 g for 10 minutes. The membranes obtained in this last pellet are stored at −80° C.
(§3) Measurement of the competitive inhibition of the bond of [125I-Tyr11]SRIF-14 (Perkin Elmer) on each of the sub-types of somatostatin receptors is carried out in duplicate in 96-well polypropylene plates. The cell membranes (5 to 20 µg of proteins/well) are incubated with [125I-Tyr11]SRIF-14 (0.05 to 0.1 nM) for 50 to 90 minutes at 37° C. (conditions dependent on the sub-type of receptor) in a HEPES buffer medium 50 mM pH 7.4, comprising 0.2% bovine serum albumin (BSA), MgCl2 5 mM, Trasylol 200 KIU/mL, Bacitracin 0.02 mg/mL, phenylmethylsulphonyl fluoride 0.02 mg/mL.
(§4) The bound [125I-Tyr11]SRIF-14 is separated from the free [125I-Tyr11]SRIF-14 by filtration through GF/C glass fibre plates (Unifilter, Perkin Elmer) pre-impregnated with 0.1% polyethylenimine (P.E.I.), using a Filtermate 96 (Perkin Elmer). The filters are washed with Tris-HCl buffer 50 mM, pH 7.4 at 4° C. and the radioactivity present is determined using a counter (TopCount, Perkin Elmer).
(§5) The data are analyzed by computer-assisted non-linear regression using XLfit 4.2 (IDBS) software.

In data set [2] the target is T2, somatostatin receptors sub-type 5 (Homo sapiens, UniProt P35346).
T2 construct: expressed in transfected cells; membrane preparations
T2 sequence (P35346 whole entry): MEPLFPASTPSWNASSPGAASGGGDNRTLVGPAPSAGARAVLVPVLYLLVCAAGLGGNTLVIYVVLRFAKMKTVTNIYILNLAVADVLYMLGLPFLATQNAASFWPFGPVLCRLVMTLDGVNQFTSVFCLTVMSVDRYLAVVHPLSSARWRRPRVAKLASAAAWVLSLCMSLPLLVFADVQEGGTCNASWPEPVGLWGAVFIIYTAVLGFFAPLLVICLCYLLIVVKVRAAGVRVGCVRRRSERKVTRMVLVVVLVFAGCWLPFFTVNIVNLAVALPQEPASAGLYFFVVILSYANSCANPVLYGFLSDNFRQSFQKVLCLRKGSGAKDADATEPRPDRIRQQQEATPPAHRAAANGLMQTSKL
Described as above. The following applies: competitive inhibition of [125I-Tyr11]SRIF-14 binding, 37° C. The procedure: as §1, §2, §3, §4, §5

The nature of data set [3]: Self-assembly study: putting peptides in solution in water, macroscopic, ATR-FTIR, TEM and SAXS analysis. It counts as physicochemical. The following applies: 3 to 15% by mass of peptide in water; form and diameter of the self-assembled structure, or soluble / insoluble. From the text: The procedure used comprises three stages: putting the peptides in solution and macroscopic analysis; spectroscopic and microscopic analyses of the structures formed and by small-angle X-ray scattering (SAXS) analyses.
The first stage of the characterization of the derivatives is the production of a range of concentrations from 3 to 15% by mass of peptide in water. Gelling of the solution indicates the presence of self-assembled structures which can be nanotubes but can also be fibres or other self-organised structures.
The object of this stage is to verify the presence of self-assembled structures, to characterize their self-assembly and to visualize them by microscopy.
Infrared spectroscopy makes it possible to obtain information on the method of stacking the peptides in the self-assemblies. The amide band spectrum, reflecting the absorption spectra of the carbonyl functions of the peptide backbone, gives information on the type of hydrogen bond in which these groups are involved (H bonds leading to the formation of the […], a helix or also a loop or random conformation) and consequently on the secondary and tertiary structure of the peptides in solution and self-assembled. The attenuated total reflection technique (ATR-FTIR) uses a crystal on which the solid or liquid sample is deposited. The infrared light is guided through this crystal at an angle which allows it to be reflected several times inside the crystal, which increases the sensitivity of the technique. Due to the performance of this device, it is then possible perform measurements on relatively dilute solutions. The beam penetrates a few microns into the sample deposited on the crystal, which means that only the molecules/structures which are deposited on the surface of the crystal are analyzed. Moreover, this technique is non-destructive.
The assembled structures are then visualized by transmission electron microscopy (TEM). This very powerful technique, allowing magnifications greater than 500,000 times, is one of the few techniques capable of visualizing structures on the nanometric scale. The sample is subjected to an electron beam. The visualization of the transmitted beam is produced either by a photoluminescent screen, or by a CCD camera. The sample in the microscope being under vacuum, it is samples dried after staining with uranyl salts in order to increase contrast which are observed.
The peptide in solution is firstly deposited on a copper grid covered with a film of carbon. After deposition of the materiel, the excess liquid is eliminated. In the same way, the solution of colorant, in our case uranyl acetate, is deposited on the grid, the excess is eliminated and the grid is dried in the open air. It can then be introduced into the microscope.
The samples, liquids or gels, are introduced into a capillary column and subjected to a monochromatic flow of X-rays. The intensity diffused is measured as a function of the scattering angle with respect to the incident angle.
The diffusion patterns thus obtained must be the subject of a correlation with a close theoretical model of the structures present in the sample. In the case where the peptides have self-assembled in the form of hollow nanotubes, the modelling of the experimental data with the theoretical diffusion produced by infinitely long hollow columns makes it possible to determine with precision the diameter of the columns and to estimate their wall thickness (Valery et al. in Biophysical journal, 2004, 86(4), 2484-2501 and Proc. Natl. Acad. Sci., 2003, 100(18) 10258-10262). For polydisperse, nanotubular, fibrilar, micellar or lamellar self-assemblies, it is the correlation of the spectroscopic, microscopic and XR scattering data which makes it possible to estimate a size range for the objects observed.

pKi: −log10 of the molar value. Where “and” joins values, the source holds several entries; their conditions need not be identical. Equal values may be shown once. Bridge positions count the residues as written; N and C are the ends. Square brackets hold non-standard residues; d marks the D form. Peptide text beside a SMILES is read from it. ξ: configuration not given here. dPhe(2-Br) = N[C@H](Cc1ccccc1Br)C(=O)O; 2Nal = N[C@@H](Cc1ccc2ccccc2c1)C(=O)O; d2Nal = N[C@H](Cc1ccc2ccccc2c1)C(=O)O; dThr(3ξ) = CC(O)[C@@H](N)C(=O)O; Thr(3ξ) = CC(O)[C@H](N)C(=O)O Where only a bound is given, the exact number is not on record here.

T1 sequence (P30874 whole entry): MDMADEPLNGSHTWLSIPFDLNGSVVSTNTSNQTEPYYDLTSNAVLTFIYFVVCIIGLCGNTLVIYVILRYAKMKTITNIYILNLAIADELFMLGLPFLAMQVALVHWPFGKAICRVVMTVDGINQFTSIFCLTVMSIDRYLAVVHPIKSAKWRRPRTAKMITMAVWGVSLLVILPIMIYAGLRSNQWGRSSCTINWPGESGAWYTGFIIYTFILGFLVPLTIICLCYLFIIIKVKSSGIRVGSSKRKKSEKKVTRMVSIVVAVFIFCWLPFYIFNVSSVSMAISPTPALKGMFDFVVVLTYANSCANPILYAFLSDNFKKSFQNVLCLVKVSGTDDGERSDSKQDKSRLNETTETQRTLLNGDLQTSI

Regarding `CC(C)[C@@H]1NC(=O)[C@H](CCCCN)NC(=O)[C@@H](Cc2csc3ccccc23)NC(=O)[C@H](Cc2ccc(O)cc2)NC(=O)[C@@H](NC(=O)[C@H](N)Cc2ccc3ccccc3c2)CSSC[C@@H](C(=O)N[C@H](C(N)=O)C(C)O)NC1=O` (stereo partly drawn) [Example 1, H-D-2-Nal^1-cyclo(Cys^2-Tyr^3-β-(3-benzothienyl)-D-Ala^4-Lys^5-Val^6-Cys^7)-Thr^8-NH2.2 CH3COOH], the negative-log Ki (pKi) was ≥ 8.30 in data set [1] and ≥ 7.00 in data set [2]. In data set [3], the Assembly entry is “monodisperse peptide nanotubes and 20 nm monodisperse nanotube”.

Take `CC(C)[C@@H]1NC(=O)[C@H](CCCCN)NC(=O)[C@@H](Cc2cccs2)NC(=O)[C@H](Cc2ccc(O)cc2)NC(=O)[C@@H](NC(=O)[C@H](N)Cc2ccc3ccccc3c2)CSSC[C@@H](C(=O)N[C@H](C(N)=O)C(C)O)NC1=O` (stereo partly drawn) [Example 2, H-D-2-Nal^1-cyclo(Cys^2-Tyr^3-β-(2-thienyl)-D-Ala^4-Lys^5-Val^6-Cys^7)-Thr^8-NH2.2 CH3COOH]: the pKi in data set [1] is ≥ 7.30; in data set [2] it was ≥ 6.00. Further, the Assembly entry in data set [3] is “monodisperse peptide nanotubes and 12 nm monodisperse nanotube”.

Turning to `CC(C)[C@@H]1NC(=O)[C@H](CCCCN)NC(=O)[C@@H](C(C)C)NC(=O)[C@H](Cc2ccc(O)cc2)NC(=O)[C@@H](NC(=O)[C@H](N)Cc2ccc3ccccc3c2)CSSC[C@@H](C(=O)N[C@H](C(N)=O)C(C)O)NC1=O` (stereo partly drawn) [Example 5, H-D-2-Nal^1-cyclo(Cys^2Tyr^3-D-Val^4-Lys^5-Val^6Cys^7)-Thr^8-NH2.2 CH3COOH] (H-[d2Nal]CY[dV]KVC[Thr(3ξ)]-NH2; disulfide 2-7), the pKi in data set [1] was ≥ 6.15; in data set [2], ≥ 5.30. The Assembly entry in data set [3] is “soluble”.

With `CC(C)[C@@H]1NC(=O)[C@H](CCCCN)NC(=O)[C@@H](Cc2c3ccccc3cc3ccccc23)NC(=O)[C@H](Cc2ccc(O)cc2)NC(=O)[C@@H](NC(=O)[C@H](N)Cc2ccc3ccccc3c2)CSSC[C@@H](C(=O)N[C@H](C(N)=O)C(C)O)NC1=O` (stereo partly drawn) [Example 8, H-D-2-Nal^1-cyclo(Cys^2Tyr^3-β-(9-anthryl)-D-Ala^4-Lys^5-Val^6Cys^7)-Thr^8-NH2.2 CH3COOH], the pKi in data set [1] is ≥ 7.30; in data set [2], ≥ 7.00. Moreover, in data set [3], the Assembly result is “insoluble”.

As to `CC(C)[C@@H]1NC(=O)[C@H](CCCCN)NC(=O)[C@@H](Cc2ccccc2Br)NC(=O)[C@H](Cc2ccc(O)cc2)NC(=O)[C@@H](NC(=O)[C@H](N)Cc2ccc3ccccc3c2)CSSC[C@@H](C(=O)N[C@H](C(N)=O)C(C)O)NC1=O` (stereo partly drawn) [Example 19, H-D-2-Nal^1-cyclo(Cys^2-Tyr^3-o-Br-D-Phe^4-Lys^5-Val^6-Cys^7)-Thr^8-NH2.2 CH3COOH] (H-[d2Nal]CY[dPhe(2-Br)]KVC[Thr(3ξ)]-NH2; disulfide 2-7), the values for the pKi in data set [1] and in data set [2] were ≥ 8.30 and ≥ 7.00, respectively.

For `COCCOCCOc1ccc(C[C@H]2NC(=O)[C@H](Cc3ccc(O)cc3)NC(=O)[C@@H](NC(=O)[C@H](N)Cc3ccc4ccccc4c3)CSSC[C@@H](C(=O)N[C@H](C(N)=O)[C@@H](C)O)NC(=O)[C@H](C(C)C)NC(=O)[C@H](CCCCN)NC2=O)cc1` [Example 22, H-D-2-Nal^1-cyclo(Cys^2-Tyr^3-p-2-(2-methoxyethoxy)ethoxy)-D-Phe^4-Lys^5-Val^6-Cys^7)-Thr^8-NH2].2 CH3COOH], the Assembly in data set [3] was 17.4 nm monodisperse nanotube.

Molecule `CC(C)[C@H]1NC(=O)[C@@H](CCCCN)NC(=O)[C@H](Cc2c[nH]c3ccccc23)NC(=O)[C@@H](Cc2ccc(O)cc2)NC(=O)[C@H](NC(=O)[C@@H](N)Cc2ccc3ccccc3c2)CSSC[C@H](C(=O)N[C@@H](C(N)=O)C(C)O)NC1=O` (stereo partly drawn) [Example 23, H-2-Nal^1-cyclo(D-Cys^2-D-Tyr^3-Trp^4-D-Lys^5-D-Val^6-D-Cys^7)-D-Thr^8-NH2.2 CH3COOH] (H-[2Nal][dC][dY]W[dK][dV][dC][dThr(3ξ)]-NH2; disulfide 2-7) had an Assembly in data set [3] of 24.4 nm monodisperse nanotube.

The pKi is the negative decadic logarithm of the Ki, by convention in mol/L. Read a low pKi as a high Ki.

The record behind these values is US9382306B2, “Octapeptide compounds derived from somatostatin and the therapeutic use thereof” (IPSEN PHARMA S.A.S., priority 2008, dated 2016).
